Tested on: patients with advanced solid tumors
Assay: Phase I dose-escalating study, safety and dose limiting toxicities
Format: in vivo
Conditions: for maximum tolerated dose: 3-hour i.v. infusion
From the text: Primary Study Objectives • Dose escalation phase: To identify the dose limiting toxicities (DLTs), and to determine the maximum tolerated dose (MTD) and the recommended dose (RD) of PM14 administered intravenously (i.v.) on two days (Day 1 and Day 8) or on Day 1 only, both every three weeks (q3wk) over three hours to patients with advanced solid tumors.
First-in-human, open-label, dose-finding, phase I trial, using a classical 3+3 design followed by a continual reassessment method (CRM) (see Dose Escalation Schedule, below).
Patients will be included in cohorts of a minimum of three or six patients to receive PM14 at successively increasing dose levels, starting at 0.25 mg/m2 for the Days 1 and 8 schedule. For the Day 1 schedule, the starting dose will be 4.5 mg/m^2.
Open-label, dose-escalating, phase I trial of PM14 administered as a 3-hour infusion i.v. every 3 weeks (q3wk) in human patients (pts) with advanced solid tumors, adequate organ function and ECOG PS score of 0-1. Two schedules were explored: Schedule A (Day 1 [D1], Day 8 [D8]) and Schedule B (D1).
Determination of MTD and RD: the MTD will be the lowest dose level explored during dose escalation in which one third or more of evaluable patients develop a DLT in Cycle 1. The CRM could be used to define the RD.
Secondary Endpoints • Safety: patients will be evaluable for safety if they have received at least one partial infusion of PM14. AEs will be graded according to the NCI-CTCAE v.4. Additionally, treatment-related discontinuations and treatment compliance (dose reduction, skipped doses and/or treatment delays due to AEs), will be described. • Pharmacokinetics: PK analyses will be evaluated in plasma and urine by standard non-compartmental analysis (compartmental modeling may be performed if appropriate). Plasma samples for PM14 PK analysis will be obtained in Cycle 1 from all patients, and also in Cycle 2 from patients treated during Step D of the CRM. In addition, the urine produced during Day 1 of Cycle 1 and Cycle 2 will be collected from patients treated during Step D of the CRM. • Pharmacogenetics: the presence or absence of PGt polymorphisms in genes relevant for PM14 disposition (distribution, metabolism and excretion) from a single blood sample collected at any time during the trial (but preferably at the same time as the pre-treatment PK sample on Day 1 of Cycle 1) will be assessed to explain individual variability in main PK parameters. • Pharmacogenomics: this exploratory analysis will be performed in those patients who sign the Informed Consent Form (ICF) for the PGx study. mRNA or protein expression levels of factors involved in DNA repair mechanisms, or related to the mechanism of action of PM14, will be evaluated from available tumor tissue samples obtained at diagnosis or relapse and in cell-free ctDNA. Their mutational status might also be analyzed, if relevant. Their correlation with the clinical response and outcome after treatment will be assessed. • Efficacy: patients will be evaluable for efficacy if they receive at least one complete infusion of PM14 and have at least one clinical or radiological tumor assessment as per RECIST v.1.1 or serum markers, or if they are considered to have failed treatment. Treatment failure will be defined as clinical deterioration, death due to PD or treatment discontinuation due to any treatment-related toxicity before any appropriate tumor assessments have been performed. […]

[1] = Schedule A D1,D8, 3.0 mg/m^2 (n: 9)
[2] = Schedule A D1,D8, <3.0 mg/m^2 (n: 14)
[3] = Schedule A D1,D8, >3.0 mg/m^2 (n: 5)
[4] = Schedule B D1, 4.5 mg/m^2 (n: 6)
[5] = Schedule B D1, 5.6 mg/m^2 (n: 3)

SMILES: COc1c(C)cc2c(c1O)[C@@H]1[C@@H]3[C@@H]4SC[C@]5(N[C@H](CO)Cc6c5[nH]c5ccccc65)C(=O)OC[C@@H](c5c6c(c(C)c(OC(C)=O)c54)OCO6)N3[C@@H](O)[C@H](C2)N1C [PM14, ECUBECTEDIN]
- DLTs at the RDs (3.0 mg/n^2 D1,D8 (A) and 4.5 mg/n^2 D1 (B)): No DL-Ts
- maximum tolerated dose (Schedule A (D1, D8 q3wk)): 4.5 mg/m^2
- ALT increase Gr 1-2, (%) [1]: (55.6%)
- ALT increase Gr 3, (%) [1]: (11.1%)
- AST increase Gr 1-2, (%) [1]: (77.8%)
- Anemia Gr 1-2, (%) [1]: (77.8%)
- Anemia Gr 3, (%) [1]: (11.1%)
- CPK increase Gr 1-2, (%) [1]: (22.2%)
- Diarrhoea Gr 1-2, (%) [1]: (11.1%)
- Nausea Gr 1-2, (%) [1]: (11.1%)
- Neutropenia Gr 1-2, (%) [1]: (11.1%)
- Neutropenia Gr 3, (%) [1]: (11.1%)
- Neutropenia Gr 4, (%) [1]: (11.1%)
- Vomiting Gr 1-2, (%) [1]: (11.1%)
- Vomiting Gr 3, (%) [1]: (11.1%)
- ALT increase Gr 1-2, (%) [2]: (35.7%)
- AST increase Gr 1-2, (%) [2]: (21.4%)
- Anemia Gr 1-2, (%) [2]: (85.7%)
- CPK increase Gr 1-2, (%) [2]: (42.9%)
- Constipation Gr 1-2, (%) [2]: (7.1%)
- Decreased appetite Gr 1-2, (%) [2]: (7.1%)
- Diarrhoea Gr 1-2, (%) [2]: (14.3%)
- Fatigue Gr 1-2, (%) [2]: (28.6%)
- Nausea Gr 1-2, (%) [2]: (42.9%)
- Neutropenia Gr 1-2, (%) [2]: (14.3%)
- Vomiting Gr 1-2, (%) [2]: (42.9%)
- ALT increase Gr 1-2, (%) [3]: (60.0%)
- ALT increase Gr 3, (%) [3]: (40.0%)
- AST increase Gr 1-2, (%) [3]: (100.0%)
- Anemia Gr 1-2, (%) [3]: (80.0%)
- Anemia Gr 3, (%) [3]: (20.0%)
- Constipation Gr 1-2, (%) [3]: (60.0%)
- Decreased appetite Gr 1-2, (%) [3]: (40.0%)
- Diarrhoea Gr 1-2, (%) [3]: (20.0%)
- Fatigue Gr 1-2, (%) [3]: (40.0%)
- Fatigue Gr 3, (%) [3]: (20.0%)
- Nausea Gr 1-2, (%) [3]: (80.0%)
- Neutropenia Gr 1-2, (%) [3]: (20.0%)
- Neutropenia Gr 4, (%) [3]: (40.0%)
- Vomiting Gr 1-2, (%) [3]: (60.0%)
- recommended dose (RD) (Schedule A, on D1,D8): 3.0 mg/n^2
- maximum tolerated dose (Schedule B (D1 q3wk)): 5.6 mg/rn^2
- ALT increase Gr 1-2, (%) [4]: (66.7%)
- ALT increase Gr 3, (%) [4]: (33.3%)
- AST increase Gr 1-2, (%) [4]: (50.0%)
- AST increase Gr 4, (%) [4]: (16.1%)
- Anemia Gr 1-2, (%) [4]: (83.3%)
- CPK increase Gr 1-2, (%) [4]: (33.3%)
- Decreased appetite Gr 1-2, (%) [4]: (16.7%)
- Fatigue Gr 1-2, (%) [4]: (50.0%)
- Headache Gr 1-2, (%) [4]: (16.7%)
- Nausea Gr 1-2, (%) [4]: (50.0%)
- Neutropenia Gr 3, (%) [4]: (16.7%)
- Neutropenia Gr 4, (%) [4]: (16.7%)
- Vomiting Gr 1-2, (%) [4]: (16.7%)
- ALT increase Gr 1-2, (%) [5]: (66.7%)
- ALT increase Gr 4, (%) [5]: (33.3%)
- AST increase Gr 1-2, (%) [5]: (33.3%)
- AST increase Gr 4, (%) [5]: (33.3%)
- Anemia Gr 1-2, (%) [5]: (33.3%)
- Anemia Gr 3, (%) [5]: (66.7%)
- CPK increase Gr 1-2, (%) [5]: (66.7%)
- Fatigue Gr 1-2, (%) [5]: (33.3%)
- Febrile neutropenia Gr 4, (%) [5]: (33.3%)
- Neutropenia Gr 1-2, (%) [5]: (33.3%)
- Neutropenia Gr 3, (%) [5]: (33.3%)
- Neutropenia Gr 4, (%) [5]: (33.3%)
- recommended dose (RD) (Schedule B, on D1): 4.5 mg/n^2
- tolerability at the RDs (patients with advanced solid tumors): well tolerated
